Results published in patent publication US8748575B2, “Therapeutic peptides” (Combimab, Inc., priority 2010, dated 2014).

How the values were obtained:
GC-C = target: T1, GC-C (Mus musculus, UniProt Q3UWA6); experiment: Intestinal membrane 125I-STa competitive radioligand binding assay; parameters: key to I-125 binding assay: 1+ (lowest activity/potency); ++: Results are graded from 1+ (lowest activity/potency) to 5+ (highest activity/potency); +++: Results are graded from 1+ (lowest activity/potency) to 5+ (highest activity/potency); ++++: Results are graded from 1+ (lowest activity/potency) to 5+ (highest activity/potency); +++++: 5+ (highest activity/potency); conditions: for I-125 binding assay: graded activity/potency, mouse intestinal membranes
T1 construct: freshly prepared mouse intestine membranes; from tissue; host or cells: mouse intestine (membrane preparation)
T1 sequence (Q3UWA6 20-1072): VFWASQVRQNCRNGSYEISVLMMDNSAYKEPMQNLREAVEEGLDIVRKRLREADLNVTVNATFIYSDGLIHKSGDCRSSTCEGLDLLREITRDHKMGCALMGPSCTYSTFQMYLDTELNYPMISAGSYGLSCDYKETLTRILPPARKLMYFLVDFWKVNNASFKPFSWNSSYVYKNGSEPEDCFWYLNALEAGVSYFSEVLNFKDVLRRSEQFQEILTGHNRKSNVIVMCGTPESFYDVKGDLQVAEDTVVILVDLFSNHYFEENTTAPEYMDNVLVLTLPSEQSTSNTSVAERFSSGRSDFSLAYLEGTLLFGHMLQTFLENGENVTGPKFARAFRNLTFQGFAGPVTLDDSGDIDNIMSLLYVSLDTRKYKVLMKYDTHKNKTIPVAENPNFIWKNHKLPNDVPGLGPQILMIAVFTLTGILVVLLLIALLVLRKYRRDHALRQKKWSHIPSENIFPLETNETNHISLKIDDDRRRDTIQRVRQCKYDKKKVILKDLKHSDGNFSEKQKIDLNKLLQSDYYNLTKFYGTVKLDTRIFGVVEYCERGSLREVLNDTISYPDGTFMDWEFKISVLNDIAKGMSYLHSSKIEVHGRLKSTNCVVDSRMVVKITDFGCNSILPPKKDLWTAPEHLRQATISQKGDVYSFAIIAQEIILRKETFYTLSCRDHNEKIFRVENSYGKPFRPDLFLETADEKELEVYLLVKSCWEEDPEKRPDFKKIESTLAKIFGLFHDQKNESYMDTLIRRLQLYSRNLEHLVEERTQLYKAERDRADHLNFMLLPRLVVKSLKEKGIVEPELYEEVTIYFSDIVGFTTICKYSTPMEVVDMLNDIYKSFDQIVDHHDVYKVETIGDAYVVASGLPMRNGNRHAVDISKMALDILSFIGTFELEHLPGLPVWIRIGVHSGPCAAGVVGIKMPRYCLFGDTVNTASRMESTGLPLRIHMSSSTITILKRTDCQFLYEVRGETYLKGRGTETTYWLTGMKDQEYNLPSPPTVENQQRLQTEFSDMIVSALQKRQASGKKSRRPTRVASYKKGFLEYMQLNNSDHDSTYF
Procedure: Intestinal membrane 1-125 labeled radioligand binding assay. The intestinal membrane radioligand binding assay was used to assess whether a novel compound could displace ^125I-STa from GC-C (Crane et al., 1992). Each analog was analyzed for its ability to displace ^125I-STa from GC-C in a competitive binding assay. ^125I-ST Displaced” was determined by co-incubating STa analogs (10 μM) with 50,000 DPM of ^125I-STa (1-18) in the presence of mouse intestinal membranes. The displacement (n=3) for each analog was determined relative to a vehicle control.
Membranes were prepared from freshly harvested mouse intestines by first washing away the blood or feces with ice-cold Dulbecco's PBS. Washed organs were minced with a single-edged razor blade, followed by homogenization on ice in 50 mM Tris, pH 7.6, containing 1 mM EDTA, 1 mM PMSF, 1 mM DTT. Debris was then removed by a 15 minute centrifugation at 3,000×G and 4° C. The supernatant is then passed through successively smaller needles (18 gauge through 25 gauge) and frozen at −70° C. until used as a tissue homogenate. If intended for use as isolated membranes, the above homogenate was centrifuged (100,000×G) at 4° C. for 1 hour while fresh and the pellet was re-suspended in homogenization buffer.
The assay was performed in 96 well filter plates which were pre-incubated overnight with 200 μl of 0.3% polyethylenimine (w/v) and washed three times by aspiration with 300 μl of Wash Buffer (150 mM NaCl, 20 mM Sodium Phosphate pH=7.2, 1 mM EDTA) immediately before use. Into each well of was added 50 μl of 3× Binding buffer (150 mM Tris-HCl pH=7.6, 1.98 mM Cysteamine, 0.3% Bacitracin, 1350 mM NaCl, 3 mM EDTA), 40 μl of double-distilled water, 10 μl of either double-distilled water or cold ligand (50 uM STa (5-18) in double-distilled water), 10 μl of increasing concentrations (125 DPM/ul to 50,000 DPM/ul) of radiolabeled 125I -STa (1-18) and finally 40 μl (approximately 2 mg protein/ml) of freshly prepared mouse intestine membranes. The plates were then incubated with mixing at 37 C for two hr, washed successively with six 200 μl aliquots of Wash Buffer and aspirated to dryness. The filter bottoms of each well were punched into individual borosilicate tubes and bound radioactivity determined in a gamma counter. Protein content was determined on an aliquot of the mouse intestine membranes used in the Biorad Protein Assay.

T84 cells (GC-C) = experiment: Intact T84 cell cGMP accumulation assay; format: cell-based, Human; parameters: key to CGMP accumulation assay: 1+ (lowest activity/potency); ++: Results are graded from 1+ (lowest activity/potency) to 5+ (highest activity/potency); +++: Results are graded from 1+ (lowest activity/potency) to 5+ (highest activity/potency); ++++: Results are graded from 1+ (lowest activity/potency) to 5+ (highest activity/potency); +++++: 5+ (highest activity/potency); conditions: for CGMP accumulation assay: graded activity/potency, T84 cells; for activity in the cGMP accumulation assay: FIG. 22, compared to STa peptide
Procedure: The intact T84 cell assay was used to detect the accumulation of cGMP, the product of agonism, upon interaction with a compound (Visweswariah et al., 1992). Human colorectal adenocarcinoma T84 cells were grown to confluence in a 24 well plate using DMEM/F12 medium supplemented with 10% FBS. The media was aspirated from each well and the cells were washed three times with Dulbecco's PBS (1×, no Ca2+ or Mg2+). The cells were then incubated for 30 minutes at 37° C. with 1 mM […] (IBMX) in Optimem medium (no FBS), either with or without potential antagonists. After incubation under these conditions, a 10× concentrated stock of a known GC-C agonist (e.g., STa (5-18)) in PBS was added to each well and the incubation continued for an additional 15 min at 37° C.
The reaction was stopped by the addition of 200 μL of Passive Lysis Buffer (Promega) to each well. The supernatant was removed for cGMP quantitation by RIA using ^125I-labeled cGMP 54 antibody relative to an external cGMP standard curve. The cells were scraped from the surface for protein content determination using a BioRad Protein Assay.

[1] = Mouse intestinal secretion assay (suckling mouse assay); format: in vivo; parameters: key to Mouse intestinal secretion assay (suckling mouse): 1+ (lowest activity/potency); ++: Results are graded from 1+ (lowest activity/potency) to 5+ (highest activity/potency); +++: Results are graded from 1+ (lowest activity/potency) to 5+ (highest activity/potency); ++++: Results are graded from 1+ (lowest activity/potency) to 5+ (highest activity/potency); +++++: 5+ (highest activity/potency); conditions: for Mouse intestinal secretion assay (suckling mouse): graded activity/potency
Procedure: A relevant disease model is the suckling mouse model in which STa (5-18) is deposited into the stomach of 3-4 day old mice, and the accumulation of fluid in their intestines is determined gravimetrically (Parkinson et al., 1994). All GCC peptides were formulated to the desired concentration in Dulbecco's PBS (1×, No Ca++, no Mg++) containing […] immediately prior to dosing. Proteinase inhibitors were prepared as stock solutions in PBS and added to dosing solutions by serial dilution, as needed. The dosing solution (50 μL) was delivered into the stomachs of 2-4 day old mice (3 per dosing group) using a plastic tube attached to the needle of a 1 mL tuberculin syringe. After 3 hours, the animals were sacrificed and dissected to determine the individual weights of the intestines and the rest of the carcass, respectively.

[2] = FIG. 20, compared to ST peptide
[3] = FIG. 21, compared to linaclotide

Substance | activity in the I-125 labeled radioligand binding assay (GC-C; [2]) | I-125 binding assay (GC-C) | CGMP accumulation assay (T84 cells (GC-C)) | activity in the cGMP accumulation assay (T84 cells (GC-C); second experiment) | activity in the mouse intestinal secretion assay ([1]; FIG. 26, compared to STa) | Mouse intestinal secretion assay (suckling mouse) [1] | activity in the I-125 labeled radioligand binding assay (GC-C; [3]) | activity in the I-125 labeled radioligand binding assay (GC-C; FIG. 18, compared to STa) | activity in the I-125 labeled radioligand binding assay (GC-C; FIG. 19, compared to linaclotide) | activity in the cGMP accumulation assay (T84 cells (GC-C)) | activity in the mouse intestinal secretion assay ([1]; FIG. 24, compared to linaclotide) | activity in the mouse intestinal secretion assay ([1]; FIG. 25, compared to STa peptide)
H2N Cys Cys Glu Leu Cys Cys Asn Thz Ala Cys Ala Gly Cys Tyr COOH (CCELCCNXACAGCY; not fully specified; non-natural residue Thz; Modified Amino Acid (8)..(8): Xaa8 = Thz = Thiazolidine (4-thiazolidine-2-carboxylic acid), Tzd) [Peptide D] | superior to ST peptide | +++++ | +++++ | higher than the STa peptide | higher activity than STa | +++++ | – | – | – | – | – | –
H2N Cys Cys Glu Leu Cys Cys Asn HyPro Ala Cys Ala Gly Cys Tyr COOH (CCELCCNXACAGCY; not fully specified; non-natural hydroxy residue; Modified Amino Acid (8)..(8): Xaa8 = HyPro = Hydroxy-Proline, Hyp, Hydroxyproline) [Peptide C] | comparable to ST peptide | ++ | +++ | lower than the STa peptide | – | – | lower than linaclotide | – | – | – | – | –
H2N Cys Cys Glu Leu Cys Cys Asn Dhp Ala Cys Ala Gly Cys Tyr COOH (CCELCCNXACAGCY; not fully specified; non-natural residue Dhp; Modified Amino Acid (8)..(8): Xaa8 = Dhp = 3,4,-dihydro-Proline, D-Pro 3,4-Dehydroproline) [Peptide A] | superior to ST peptide | +++++ | +++++ | higher than the STa peptide | higher activity than STa | +++++ | superior to linaclotide | better activity than STa | superior activity compared to linaclotide | higher than the STa peptide | better activity than linaclotide | higher activity than the STa peptide
H2N Cys Cys Glu L-Thr Cys Cys Asn Pro Ala Cys Ala Gly Cys Tyr COOH (H-CCETCCNPACAGCY-OH; not fully specified (bridges); printed as Cys Cys Glu Thr Cys Cys Asn Pro Ala Cys Ala Gly Cys Tyr; cysteine pairing not given here) [Peptide B] | – | ++++ | +++ | lower than the STa peptide | lower activity | +++ | – | activity comparable to STa | – | – | – | –
